According to PubChem BioAssay AID248 (DTP/NCI, 2004):
Where “and” joins values, the source holds several entries; their conditions need not be identical. Identical values can stand only once. Inconclusive results and toxic doses are left out. Cut-off read from the data, not from the text of the source: active = T/C of 150% or more; inactive = T/C below 125%.

Test system: L1210 leukemia ip in BDF1 mice, survival T/C
Assay: NCI In Vivo Anticancer Drug Screen. Data for tumor model L1210 Leukemia (intraperitoneal) in B6D2F1 (BDF1) mice
Details: endpoint: mean survival time, higher = longer survival
Summary of the method: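 Value reflects the ratio of survival in compound-treated mice to survival in vehicle-treated controls, with both groups carrying the same transplanted tumor.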

[1] = dose: 100.0 mg/kg/injection, schedule: Q01DX009 (ip), vehicle: Klucel (hydroxypropylcellulose) (HPC)
[2] = dose: 100.0 mg/kg/injection, schedule: Q04DX003 (ip), vehicle: saline
[3] = dose: 200.0 mg/kg/injection, schedule: Q01DX009 (ip), vehicle: Klucel (hydroxypropylcellulose) (HPC)
[4] = dose: 200.0 mg/kg/injection, schedule: Q04DX003 (ip), vehicle: saline
[5] = dose: 400.0 mg/kg/injection, schedule: Q01DX009 (ip), vehicle: Klucel (hydroxypropylcellulose) (HPC)
[6] = dose: 400.0 mg/kg/injection, schedule: Q04DX003 (ip), vehicle: saline
[7] = dose: 100.0 mg/kg/injection, schedule: Q01DX009 (ip), vehicle: saline with Tween-80
[8] = dose: 200.0 mg/kg/injection, schedule: Q01DX009 (ip), vehicle: saline with Tween-80
[9] = dose: 400.0 mg/kg/injection, schedule: Q01DX009 (ip), vehicle: saline with Tween-80
[10] = dose: 100.0 mg/kg/injection, schedule: Q01DX001 (ip), vehicle: saline
[11] = dose: 200.0 mg/kg/injection, schedule: Q01DX001 (ip), vehicle: saline
[12] = dose: 400.0 mg/kg/injection, schedule: Q01DX001 (ip), vehicle: saline
[13] = dose: 100.0 mg/kg/injection, schedule: Q01DX009 (ip), vehicle: saline
[14] = dose: 100.0 mg/kg/injection, schedule: Q04DX003 (ip), vehicle: Klucel (hydroxypropylcellulose) (HPC)
[15] = dose: 200.0 mg/kg/injection, schedule: Q01DX009 (ip), vehicle: saline
[16] = dose: 200.0 mg/kg/injection, schedule: Q04DX003 (ip), vehicle: Klucel (hydroxypropylcellulose) (HPC)
[17] = dose: 400.0 mg/kg/injection, schedule: Q04DX003 (ip), vehicle: Klucel (hydroxypropylcellulose) (HPC)

Measured: T/C

CCC(C)C(=NC)Nc1ccc(Cl)c(Cl)c1 (stereo not drawn)
inactive: dose: 111.0 mg/kg/injection, schedule: Q01DX Z (ip), vehicle: methylcellulose (MC) 91 % of control

c1ccc2c(c1)C1c3cccc[n+]3C2CC1n1c2ccccc2c2ccccc21 (stereo not drawn)
inactive: dose: 12.5 mg/kg/injection, schedule: Q01DX009 (ip), vehicle: Klucel (hydroxypropylcellulose) (HPC) 106 % of control | dose: 12.5 mg/kg/injection, schedule: Q04DX003 (ip), vehicle: Klucel (hydroxypropylcellulose) (HPC) 111 % of control | dose: 25.0 mg/kg/injection, schedule: Q01DX009 (ip), vehicle: Klucel (hydroxypropylcellulose) (HPC) 106 % of control | dose: 25.0 mg/kg/injection, schedule: Q04DX003 (ip), vehicle: Klucel (hydroxypropylcellulose) (HPC) 106 % of control | dose: 50.0 mg/kg/injection, schedule: Q04DX003 (ip), vehicle: Klucel (hydroxypropylcellulose) (HPC) 91 % of control | [1] 102 % of control | [2] 93 % of control | [3] 94 % of control | [4] 98 % of control | [5] 94 % of control | [6] 94 % of control

S=C(NC1CCCCC1)N1CCC(CCCC2CCN(C(=S)NC3CCCCC3)CC2)CC1
inactive: [7] 95 % of control | [8] 97 % of control | [9] 97 % of control

O=C(C(Br)C(Br)c1ccccc1)N1CCOCC1 (stereo not drawn)
inactive: dose: 100.0 mg/kg/injection, schedule: Q01DX009 (ip), vehicle: saline sonified 108 % of control | [2] 109 % of control | dose: 200.0 mg/kg/injection, schedule: Q01DX009 (ip), vehicle: saline sonified 101 % of control | [4] 100 % of control | dose: 400.0 mg/kg/injection, schedule: Q01DX009 (ip), vehicle: saline sonified 95 % of control | [6] 98 % of control

COC(=O)C1C(O)CC2CCC1[N+]2(C)C (stereo not drawn)
inactive: [10] 96 % of control | [11] 100 % of control

CC(=O)NC(CSSCC(NC(C)=O)C(=O)OC(C)=O)C(=O)O (stereo not drawn)
inactive: dose: 25.0 mg/kg/injection, schedule: Q01DX001 (ip), vehicle: saline 102 % of control | dose: 50.0 mg/kg/injection, schedule: Q01DX001 (ip), vehicle: saline 96 % of control | [10] 93 % of control

CCOC(=O)CCN(C)CCC(=O)OCC
inactive: dose: 12.5 mg/kg/injection, schedule: Q01DX009 (ip), vehicle: water 101 % of control | dose: 25.0 mg/kg/injection, schedule: Q01DX009 (ip), vehicle: water 103 % of control | dose: 25.0 mg/kg/injection, schedule: Q04DX003 (ip), vehicle: water 101 % of control | dose: 50.0 mg/kg/injection, schedule: Q01DX009 (ip), vehicle: water 105 % of control | dose: 50.0 mg/kg/injection, schedule: Q04DX003 (ip), vehicle: water 101 % of control | dose: 100.0 mg/kg/injection, schedule: Q04DX003 (ip), vehicle: water 101 % of control

CN1C(=O)c2ccccc2NC(=O)C12OC2c1ccccc1 (stereo not drawn)
inactive: [10] 101 % of control | [11] 101 % of control | [12] 97 % of control

O=C(Cc1ccc([N+](=O)[O-])cc1)c1ccccc1
inactive: dose: 100.0 mg/kg/injection, schedule: Q01DX001 (ip), vehicle: Klucel (hydroxypropylcellulose) (HPC) 95 % of control | [1] 102 % of control | [13] 108 % of control | [14] 97 % of control | dose: 200.0 mg/kg/injection, schedule: Q01DX001 (ip), vehicle: Klucel (hydroxypropylcellulose) (HPC) 88 % of control | [3] 103 % of control | [15] 102 % of control | [16] 97 % of control | dose: 400.0 mg/kg/injection, schedule: Q01DX001 (ip), vehicle: Klucel (hydroxypropylcellulose) (HPC) 90 % of control | [5] 94 % of control | dose: 400.0 mg/kg/injection, schedule: Q01DX009 (ip), vehicle: saline 97 % of control | [17] 101 % of control

O=C(NC(=O)C(C(=O)c1ccccc1)c1ccccc1)c1ccccc1 (stereo not drawn)
inactive: dose: 100.0 mg/kg/injection, schedule: Q01DX001 (ip), vehicle: other 86 % of control | dose: 200.0 mg/kg/injection, schedule: Q01DX001 (ip), vehicle: other 89 % of control | dose: 400.0 mg/kg/injection, schedule: Q01DX001 (ip), vehicle: other 91 % of control

COC(=O)C(=O)CC(=O)c1cccc(C)c1
inactive: dose: 100.0 mg/kg/injection, schedule: Q04DX002 (ip), vehicle: Klucel (hydroxypropylcellulose) (HPC) 100 % of control | dose: 200.0 mg/kg/injection, schedule: Q04DX002 (ip), vehicle: Klucel (hydroxypropylcellulose) (HPC) 103 % of control | dose: 400.0 mg/kg/injection, schedule: Q04DX002 (ip), vehicle: Klucel (hydroxypropylcellulose) (HPC) 92 % of control

CC(O)c1cccc(NC(=O)Nc2ccc(Cl)c(Cl)c2)c1 (stereo not drawn)
inactive: [1] 96 % of control | [3] 98 % of control | [5] 96 % of control

O=C1CCCN1C(=O)c1ccccc1
inactive: [7] 101 % of control | [8] 95 % of control | [9] 95 % of control

IC1CCCOC1[n+]1ccccc1 (stereo not drawn)
inactive: dose: 12.5 mg/kg/injection, schedule: Q01DX009 (ip), vehicle: saline with Tween-80 102 % of control | dose: 12.5 mg/kg/injection, schedule: Q04DX003 (ip), vehicle: saline with Tween-80 96 % of control | dose: 25.0 mg/kg/injection, schedule: Q01DX009 (ip), vehicle: saline with Tween-80 100 % of control | dose: 25.0 mg/kg/injection, schedule: Q04DX003 (ip), vehicle: saline with Tween-80 104 % of control | dose: 50.0 mg/kg/injection, schedule: Q01DX009 (ip), vehicle: saline with Tween-80 103 % of control | dose: 50.0 mg/kg/injection, schedule: Q04DX003 (ip), vehicle: saline with Tween-80 98 % of control

O=C(/C=C/c1ccccc1)NC(=S)Nc1ccc(C(=O)O)cc1
inactive: [1] 92 % of control | [14] 101 % of control | [3] 101 % of control | [16] 100 % of control | [5] 94 % of control | [17] 108 % of control

NC(N)=N/N=C/CN1C(=O)c2ccccc2C1=O
inactive: dose: 60.0 mg/kg/injection, schedule: Q01DX Z (oral), vehicle: methylcellulose (MC) 104 % of control | dose: 120.0 mg/kg/injection, schedule: Q01DX Z (oral), vehicle: methylcellulose (MC) 94 % of control | dose: 240.0 mg/kg/injection, schedule: Q01DX Z (oral), vehicle: methylcellulose (MC) 109 % of control | dose: 480.0 mg/kg/injection, schedule: Q01DX Z (oral), vehicle: methylcellulose (MC) 98 % of control

O=C(CCN1CC1)OCCCCOC(=O)CCN1CC1
inactive: dose: 2.5 mg/kg/injection, schedule: Q01DX009 (ip), vehicle: saline 113 % of control | dose: 5.0 mg/kg/injection, schedule: Q01DX009 (ip), vehicle: saline 110 % of control | dose: 6.6 mg/kg/injection, schedule: Q01DX009 (ip), vehicle: saline 94 % of control and 102 % of control | dose: 10.0 mg/kg/injection, schedule: Q01DX009 (ip), vehicle: saline 102 % of control | dose: 15.0 mg/kg/injection, schedule: Q01DX009 (ip), vehicle: saline 100 % of control and 107 % of control | dose: 20.0 mg/kg/injection, schedule: Q01DX009 (ip), vehicle: saline 104 % of control | dose: 20.0 mg/kg/injection, schedule: Q04DX003 (ip), vehicle: saline 115 % of control | dose: 40.0 mg/kg/injection, schedule: Q04DX003 (ip), vehicle: saline 104 % of control | dose: 80.0 mg/kg/injection, schedule: Q04DX003 (ip), vehicle: saline 91 % of control

Nc1c[nH]c(=O)[nH]c1=O
inactive: [10] 89 % of control | [11] 95 % of control | [12] 97 % of control

Cc1cc(Cl)c(C)c(C(=O)O)c1Cl
inactive: dose: 50.0 mg/kg/injection, schedule: Q01DX009 (ip), vehicle: saline 107 % of control | dose: 50.0 mg/kg/injection, schedule: Q04DX003 (ip), vehicle: saline 103 % of control | [10] 91 % of control | [13] 107 % of control | [2] 105 % of control | [11] 98 % of control | [15] 105 % of control | [4] 100 % of control

CCCCCCCS(=O)c1nc2ccccc2s1 (stereo not drawn)
inactive: dose: 100.0 mg/kg/injection, schedule: Q04DX002 (ip), vehicle: other 104 % of control | dose: 200.0 mg/kg/injection, schedule: Q04DX002 (ip), vehicle: other 91 % of control | dose: 400.0 mg/kg/injection, schedule: Q04DX002 (ip), vehicle: other 91 % of control
